Measurements taken from US20020052377A1, “Method for treating angina” (priority 2000, published 2002).

What was measured:
[1] = system: patients with chronic stable angina pectoris; test: Exercise treadmill test (ETT), IR ranolazine.2HCl, placebo-controlled crossover (Example 3); format: in vivo, human; conditions: for Time to onset angina (mean) / Exercise Duration (mean) / Time to 1 mm ST depression (mean): all patients
Experimental: In this Example, the safety and anti-ischemic effects of high plasma ranolazine levels in a large group of angina patients was evaluated and the duration of any effects during steady-state dosing with bid and tid regimens was assessed. In this Example, patients with chronic stable angina pectoris who were responsive to conventional antianginal drugs were treated with 3 ranolazine.2HCl dosing regimens: 267 mg tid, 400 mg bid and 400 mg tid IR Formulations of Example 1. Exercise testing parameters and ranolazine free base concentrations were determined at peak and trough plasma levels.
The study involved double-blind, placebo-controlled randomized treatment phase with 4 treatments (placebo, ranolazine.2HCl 400 mg bid, ranolazine.2HCl 267 mg tid, and ranolazine.2HCl 400 mg tid), 4 treatment sequences and 5 double-blind treatment periods in an extended period Latin square design on pre-qualified patients who were responsive to known antianginal therapy and had stable exercise times.
Human patients with chronic stable angina pectoris, of at least 3 months' duration, that had responded to conventional antianginal therapy were considered candidates. In addition, patients had to have electrocardiogrpahic (ECG) evidence of exercise-induced ischemia based upon horizontal or down-sloping ST-segment depression of ≧1 mm that persisted in 3 consecutive beats during an exercise stress test and an ECG pattern that would not interfere with interpretation of ST-segment changes. The latter criterion specifically excluded patients with left ventricular hypertrophy, pre-excitation, conduction abnormalities, or pacemaker rhythm. Other exclusion criteria included unstable angina or myocardial infarction within the preceding 3 months, heart failure defined as New York Heart Association Class HI or IV, significant valvular or congenital heart disease that was uncorrected, need for digoxin or long-acting nitrate therapy, labile diabetes mellitus, or other serious conditions that would confuse follow-up evaluation.
These immediate release ranolazine.2HCl dosing regimens (267 mg tid, 400 mg bid, 400 mg tid) and a placebo were administered during the treatment phase. Patients took one capsule containing either 267 mg or 400 mg of ranolazine dihydrochloride, or placebo at 8:00 a.m., 4:00 p.m., 8:00 p.m. and 12:00 a.m. All capsules were identical in appearance. Patients were randomized to 1 of 4 treatment sequences, with 25% of the patients assigned to each sequence. Each treatment was administered for 1 week, with one treatment repeated during a fifth 1 week period.
To qualify patients receiving their usual antianginal medications underwent a screening exercise treadmill test (ETT-1) using a Sheffield modified Bruce protocol. If the time to onset angina was […], an antianginal drug was withdrawn and treatment with single-blind placebo was initiated. After 1 to 2 weeks, patients returned for another ETT (ETT-2). If the time to onset angina decreased by 1 minute compared with ETT-1, the patient was considered to have completed the first qualifying ETT. If the decrease in time to onset angina was not ≧1 minute, a second antianginal drug could be withdrawn and the above sequence repeated. If necessary, a third antianginal drug could be withdrawn according to this procedure in order for the patient to qualify. Long-acting nitrates were always withdrawn first; beta-blockers; and calcium antagonists could be withdrawn in either order from patients not receiving long-acting nitrates. After the patient achieved the first qualifying ETT (ETT-2), a second qualifying ETT (ETT-3) was performed in which the time to onset angina had to be within i 15% of that observed during ETT-2. In addition, each of the qualifying ETTs had to have ECG signs of ischemia (≧1 mm horizontal or down-sloping ST-segment depression in 3 consecutive beats). Patients meeting these criteria were used in the study. […]

[2] = system: patients with chronic stable angina pectoris; test: Safety, tolerability and hemodynamics, IR regimens (Example 3); format: in vivo, human
Experimental: After each 1 week period, patients returned to the exercise laboratory in the morning, at least 1 hour after a light breakfast, for an ETT. This was designated the trough ETT; the trough ETTs were performed at the same time of day for each patient. After completing the trough ETT, the patient received the next scheduled blinded medication dose from the blister pack used that week. Another ETT was performed 1 hour after the administered dose. This was designated the peak ETT. Blood samples were obtained at trough (approximately 8 hours after dosing) and at peak (1 hour after dosing). Other standard laboratory tests were monitored regularly throughout the study. Blood pressure (by cuff) and heart rate were monitored before all ETTs, during the ETT, during the last minute of each stage of the test, at onset angina, at the point of maximum exercise, and during recovery (every minute for 4 minutes, then every 5 minutes until values returned to baseline). Heart rates also was monitored continuously and standard 12-lead ECG recordings were done immediately before exercise with the patient standing on the treadmill, at the end of each stage of exercise, at the maximally tolerated exercise load, and at the termination of exercise.

[3] = system: regional myocardial ischemia and reperfusion; test: Rat model of regional myocardial ischemia and reperfusion (LAD-occlusion); format: in vivo, Male Wistar rats; conditions: LAD-occlusion 25 min, reperfusion 2 h, bolus 10 mg/kg + infusion 96. mg/kg/h from 30 min before occlusion, mean±SEM, n=12
Experimental: The aim of this study was to investigate whether ranolazine exerts beneficial effects in a rat model of regional myocardial ischemia and reperfusion. Methods: Male Wistar rats were subjected to no LAD-occlusion (sham) or LAD-occlusion (25 min) and reperfusion (2 h). Saline (bolus: 2.4 mL/kg+infusion: 24. mL/kg/h) or ranolazine (bolus: 10 mg/kg +infusion; 96. mg/kg/h) were infused 30 min before LAD-occlusion and throughout the experiment. At the end of the experiment area at risk (AR, % of left ventricle), infarct size (IS, % of AR), and plasma cardiac troponin T (cTnT, ng/mL) were determined. The following groups were studied: Group 1. sham saline (n=4), Group 2. saline control (n=12), Group 3. ranolazine (n=12).

[4] = Peak, ranolazine.2HCl IR 267 mg tid
[5] = Peak, ranolazine.2HCl IR 400 mg bid
[6] = Peak, ranolazine.2HCl IR 400 mg tid
[7] = Trough, ranolazine.2HCl IR 267 mg tid
[8] = Trough, ranolazine.2HCl IR 400 mg bid
[9] = Trough, ranolazine.2HCl IR 400 mg tid

## COc1ccccc1OCC(O)CN1CCN(CC(=O)Nc2c(C)cccc2C)CC1 (racemic) [Ranolazine, (±)-N-(2,6-dimethylphenyl)-4-[2-hydroxy-3-(2-methoxyphenoxy)propyl]-1-piperazine-acetamide]
[1]; Peak (1 hour after dose), ranolazine.2HCl IR 267 mg tid
  Time to onset angina (mean): 9.40 min
[1]; Peak (1 hour after dose), ranolazine.2HCl IR 400 mg bid
  Time to onset angina (mean): 9.33 min
[1]; Peak (1 hour after dose), ranolazine.2HCl IR 400 mg tid
  Time to onset angina (mean): 9.33 min
[1]; [4]
  Exercise Duration (mean): 10.87 min
  Time to 1 mm ST depression (mean): 9.99 min
[1]; [5]
  Exercise Duration (mean): 10.83 min
  Time to 1 mm ST depression (mean): 9.86 min
[1]; [6]
  Exercise Duration (mean): 10.84 min
  Time to 1 mm ST depression (mean): 9.94 min
[1]; Trough (approx. 8 hours after dosing), ranolazine.2HCl IR 267 mg tid
  Time to onset angina (mean): 8.78 min
[1]; Trough (approx. 8 hours after dosing), ranolazine.2HCl IR 400 mg bid
  Time to onset angina (mean): 8.77 min
[1]; Trough (approx. 8 hours after dosing), ranolazine.2HCl IR 400 mg tid
  Time to onset angina (mean): 8.65 min
[1]; [7]
  Exercise Duration (mean): 10.56 min
  Time to 1 mm ST depression (mean): 9.22 min
[1]; [8]
  Exercise Duration (mean): 10.55 min
  Time to 1 mm ST depression (mean): 9.22 min
[1]; [9]
  Exercise Duration (mean): 10.60 min
  Time to 1 mm ST depression (mean): 9.31 min
[1]; estimated from peak and trough results
  threshold plasma ranolazine free base concentration for anti-ischemic activity detected during ETT: above 550 ng per mL
[1]; peak plasma concentrations, three dosing regimens
  prolongation of time to onset of angina, duration of exercise and time to 1-mm ST-segment depression over placebo, on average: about 0.33 minutes
[2]; IR dosing regimens
  blood glucose concentrations, lipid values or liver function tests: no clinically significant changes
[2]; IR dosing regimens vs placebo
  ECG intervals or complex morphology: no drug-related changes
[2]; over the plasma concentrations achieved in the study
  tolerability: well tolerated
[3]
  area at risk (AR): 48±1 % of left ventricle
  infarct size (IS): 41±4 % of AR
  plasma cardiac troponin T (cTnT): 12 ± 2 ng/mL
